Here are results for 18 compounds from publication PMC8653649, “Promising Hybrids Derived from S-Allylcysteine and NSAIDs Fragments against Colorectal Cancer: Synthesis, In-vitro Evaluation, Drug-Likeness and In-silico ADME/tox Studies” (Iranian Journal of Pharmaceutical Research : IJPR, 2021).

Read-outs that look alike come from different tables or passages of the source. A value given as a limit tells only on which side of the number the result lay.

In series [1] the test system is SW480 human colon adenocarcinoma cells. In words: Sulforhodamine B (SRB) growth inhibition / cytotoxicity, SW480.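 As to all read-outs here: cells exposed to graded doses from 10^-5 to 0.2 mM, with 1% DMSO as vehicle control, and cellular protein quantified by SRB staining after trichloroacetic acid fixation.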 The format is cell-based. As to conditions: for IC50: Homo sapiens, SRB, mean ± SE; for IC50 / cytotoxic activity (in words): SW480; for cytotoxic activity (in words): 24 h and 48 h after treatment; for SI (selectivity index): ratio IC50 CHO-K1 / IC50 SW480.
Experimental: Cells were cultured in 25-cm^2 flasks containing Dulbecco’s Modified Eagle Medium, supplemented with 10% heat-inactivated (56 °C) horse serum, 1% penicillin/streptomycin and 1% non-essential amino acids (Gibco Invitrogen, Carlsbad, USA). For all experiments, horse serum was reduced to 3%, and the medium was supplemented with 5 mg/mL transferrin, 5 mg/mL selenium and 10 mg/mL insulin (ITS-defined medium; Gibco, Invitrogen, Carlsbad, USA) ([33]).

Series [2] relates to non-malignant CHO-K1 cell line. In words: Sulforhodamine B (SRB) growth inhibition / cytotoxicity, CHO-K1. The following applies: Cricetulus griseus, mean ± SE, read-out: IC50 (mM) CHO-K1 cells. The format is cell-based. How it is done: Biological assays were performed using adenocarcinoma colon cancer (SW480) and non-malignant (CHO-K1) cell lines obtained from The European Collection of Authenticated Cell Cultures (ECACC, England). Cells were cultured in 25-cm^2 flasks containing Dulbecco’s Modified Eagle Medium, supplemented with 10% heat-inactivated (56 °C) horse serum, 1% penicillin/streptomycin and 1% non-essential amino acids (Gibco Invitrogen, Carlsbad, USA). For all experiments, horse serum was reduced to 3%, and the medium was supplemented with […] (ITS-defined medium; Gibco, Invitrogen, Carlsbad, USA) ([33]).
The growth inhibition of the ethanol extract, the Chromone and 5-fluorouracil (5-FU; the standard drug) was evaluated through sulforhodamine B (SRB) assay, a colorimetric test that is based on staining of total cellular protein of adherent cells. Cells were seeded to a ﬁnal density of 20.000 cells/well in 96-well tissue culture plates and incubated at 37 °C in a humidified atmosphere at 5% CO2. All cultures were allowed to grow for 24 h. Afterward, they were treated with 1% of DMSO (vehicle control) or increasing concentrations (10^-5–0,2 mM) of the compounds. After treatment, cells were fixed with trichloroacetic acid (50% v/v; MERCK) for one hour at 4 °C. Cell proteins were determined by staining with SRB (0.4% w/v; Sigma-Aldrich, United States), then they were washed with 1% acetic acid to remove unbound SRB and left for air-drying. Protein-bound SRB was solubilized in 10 mM Tris-base, and the absorbance was measured at 492 nm in a microplate reader (Mindray MR-96A) ([33], [34]). All experiments were performed in quintuplicate. These values were used to calculate the IC50, through dose-response curves for each compound and the selectivity index (SI), by the ratio of IC50 values in non-malignant CHO-K1 cells to IC50 of SW480 cells.
All experiments were performed at least three times. Data are reported as mean ± SE (standard error). Statistical differences between the control group (non-treated) and treated cells were evaluated by one-way ANOVA followed by the Dunnett’s test. Values with p ≤ 0.05 were considered significant. Data were analyzed with GraphPad Prism version 7.04 for Windows (Graph Pad Software, San Diego, California, USA).

The subject of a further series is non-cancer CCD841 cells. Also noted: method as in PMID 30429977. The following applies: compared with CRC cell lines; cited from earlier work.

On to `C=CCSC[C@H](NC(=O)C(C)c1ccc2cc(OC)ccc2c1)C(=O)OC` (mixture of isomers) [11a, Methyl S-allyl-N-(2-(6-methoxynaphthalen-2-yl)propanoyl)-L-cysteinate], for which the IC50 in series [1] (24 h), in series [1] (48 h), in series [2] (24 h) and in series [2] (48 h) was above 0.2 mM throughout. Besides, the “cytotoxic activity (in words)” value in series [1] was “displayed activity neither 24 h nor 48 h”.

As for `C=CCSC[C@H](NC(=O)C(C)c1ccc2cc(OC)ccc2c1)C(=O)OCC` (mixture of isomers) [11b, Ethyl S-allyl-N-(2-(6-methoxynaphthalen-2-yl)propanoyl)-L-cysteinate], the “SI (selectivity index)” value in series [1] (48 h) is listed as above 1.28. The IC50 in series [1] (24 h) was above 0.2 mM; in series [1] (48 h), 0.156 ± 0.008 mM; in series [2] (24 h) it was above 0.2 mM; in series [2] (48 h), above 0.2 mM.

For `C=CCSC[C@H](NC(=O)C(C)c1ccc2cc(OC)ccc2c1)C(=O)OCCC` (mixture of isomers) [11c, Propyl S-allyl-N-(2-(6-methoxynaphthalen-2-yl)propanoyl)-L-cysteinate], the IC50 is above 0.2 mM in series [1] (24 h), 0.237 ± 0.012 mM in series [1] (48 h), above 0.2 mM in series [2] (24 h) and above 0.2 mM in series [2] (48 h). In series [1], the “cytotoxic activity (in words)” value was “displayed activity neither 24 h nor 48 h”.

Take `C=CCSC[C@H](NC(=O)C(C)c1ccc(CC(C)C)cc1)C(=O)OC` (mixture of isomers) [12a, Methyl S-allyl-N-(2-(4-isobutylphenyl)propanoyl)-L-cysteinate]: the melting point was 89 to 91 °C. Also, in series [1] (48 h), the “SI (selectivity index)” value came to 0.82 and the IC50 turned out to be 0.244 ± 0.011 mM. In series [1] (24 h), this compound yielded an IC50 above 0.2 mM. Also, the “cytotoxic activity (in words)” value in series [1] is “displayed activity neither 24 h nor 48 h”. In series [2] (24 h), the IC50 is above 0.2 mM. Also, the IC50 in series [2] (48 h) was determined as 0.201 ± 0.001 mM.

The compound `C=CCSC[C@H](NC(=O)C(C)c1ccc(CC(C)C)cc1)C(=O)OCC` (mixture of isomers) [12b, Ethyl S-allyl-N-(2-(4-isobutylphenyl)propanoyl)-L-cysteinate] displayed a melting point of 65 to 67 °C. Further, in series [1] (48 h), the “SI (selectivity index)” value worked out at 1.31 and half-maximal inhibition (IC50) required 0.183 ± 0.005 mM. The same compound gave a concentration for half-maximal inhibition (IC50) in series [1] (24 h) above 0.2 mM. Besides, the IC50 in series [2] (24 h) is above 0.2 mM. Also, the IC50 in series [2] (48 h) turned out to be 0.241 ± 0.018 mM.

In turn, `C=CCSC[C@H](NC(=O)C(C)c1ccc(CC(C)C)cc1)C(=O)OCCC` (mixture of isomers) [12c, Propyl S-allyl-N-(2-(4-isobutylphenyl)propanoyl)-L-cysteinate] came in with a melting point of 58 to 60 °C. Besides, in series [1] (24 h), the “SI (selectivity index)” value is reported as above 1.1 and the 50% inhibitory concentration (IC50) was determined as 0.225 ± 0.01 mM. In series [1] (48 h), the IC50 amounted to 0.209 ± 0.005 mM. In series [1], the “cytotoxic activity (in words)” value is reported as “displayed activity neither 24 h nor 48 h”. In addition, the concentration for half-maximal inhibition (IC50) in series [2] (24 h) is above 0.2 mM. In series [2] (48 h), the half-inhibitory concentration (IC50) is above 0.2 mM.

With `O=c1[nH]cc(F)c(=O)[nH]1` [5-Fluorouracil, reference compound], the “SI (selectivity index)” value was 1.22 in series [1] (48 h) and “higher than 1” in series [1] (48 h, listed as 5-fluorouracil). Further, the IC50 in series [1] (24 h) came to 0.096 ± 0.024 mM; in series [1] (48 h), 0.037 ± 0.013 mM; in series [2] (24 h), 0.125 ± 0.022 mM; in series [2] (48 h) it was 0.046 ± 0.015 mM.

For the compound `C=CCSC[C@H](NC(=O)c1ccccc1O)C(=O)OC` [9a, Methyl S-allyl-N-(2-hydroxybenzoyl)-L-cysteinate], the melting point was in the range of 112 to 114 °C. Also, in series [1] (24 h), the “SI (selectivity index)” value is given as below 0.73 and the IC50 was above 0.2 mM. For the same compound, in series [1] (48 h), the “SI (selectivity index)” value is below 0.80 and the 50% inhibitory concentration (IC50) is above 0.2 mM. Besides, the “cytotoxic activity (in words)” value in series [1] was “displayed activity neither 24 h nor 48 h”. Also, the half-maximal inhibitory concentration (IC50) in series [2] (24 h) stood at 0.146 ± 0.016 mM. Besides, the IC50 in series [2] (48 h) was 0.157 ± 0.005 mM.

Regarding `C=CCSC[C@H](NC(=O)c1ccccc1O)C(=O)OCC` [9b, Ethyl S-allyl-N-(2-hydroxybenzoyl)-L-cysteinate], the “SI (selectivity index)” value in series [1] (24 h) is on record as above 1.25. Besides, the IC50 in series [1] (24 h) was 0.16 ± 0.013 mM; in series [1] (48 h) it was above 0.2 mM; in series [2] (24 h), above 0.2 mM; in series [2] (48 h), above 0.2 mM.

Consider `C=CCSC[C@H](NC(=O)c1ccccc1O)C(=O)OCCC` [9c, Propyl S-allyl-N-(2-hydroxybenzoyl)-L-cysteinate], for which the half-inhibitory concentration (IC50) in series [1] (24 h), in series [1] (48 h), in series [2] (24 h) and in series [2] (48 h) was above 0.2 mM throughout. Besides, the “cytotoxic activity (in words)” value in series [1] is reported as “displayed activity neither 24 h nor 48 h”.

As for `C=CCSC[C@H](NC(=O)Cc1ccccc1Nc1c(Cl)cccc1Cl)C(=O)OC` [10a, Methyl S-allyl-N-(2-(2-((2,6-dichlorophenyl)amino)phenyl)acetyl)-L-cysteinate], the IC50 in series [1] (24 h) is 0.192 ± 0.004 mM; in series [1] (48 h), 0.12 ± 0.004 mM; in series [2] (24 h), 0.18 ± 0.012 mM; in series [2] (48 h), 0.112 ± 0.008 mM.

For the compound `C=CCSC[C@H](NC(=O)Cc1ccccc1Nc1c(Cl)cccc1Cl)C(=O)OCC` [10b, Ethyl S-allyl-N-(2-(2-((2,6-dichlorophenyl)amino)phenyl)acetyl)-L-cysteinate], the “SI (selectivity index)” value in series [1] (48 h) is recorded as above 1.53. In addition, the 50% inhibitory concentration (IC50) is 0.24 ± 0.013 mM in series [1] (24 h), 0.131 ± 0.012 mM in series [1] (48 h), above 0.2 mM in series [2] (24 h) and above 0.2 mM in series [2] (48 h).

Consider `C=CCSC[C@H](NC(=O)Cc1ccccc1Nc1c(Cl)cccc1Cl)C(=O)OCCC` [10c, Propyl S-allyl-N-(2-(2-((2,6-dichlorophenyl)amino)phenyl)acetyl)-L-cysteinate], for which the “SI (selectivity index)” value in series [1] (24 h) was 1.09; in series [1] (48 h), 1.06. Moreover, the IC50 came out at 0.204 ± 0.005 mM in series [1] (24 h), 0.158 ± 0.002 mM in series [1] (48 h), 0.223 ± 0.005 mM in series [2] (24 h) and 0.167 ± 0.1 mM in series [2] (48 h).

With `CC(=O)Oc1ccccc1C(=O)O` [Aspirin, reference compound], the IC50 in series [1] (24 h), in series [1] (48 h), in series [2] (24 h) and in series [2] (48 h) was above 0.2 mM each time.

As to `O=C(O)Cc1ccccc1Nc1c(Cl)cccc1Cl` [Diclofenac, reference compound], the “SI (selectivity index)” value in series [1] (48 h) worked out at 0.98. Further, the 50% inhibitory concentration (IC50) in series [1] (24 h) is 0.267 ± 0.01 mM; in series [1] (48 h) it was 0.206 ± 0.011 mM; in series [2] (24 h), above 0.2 mM; in series [2] (48 h), 0.202 ± 0.001 mM.

On to `CC(C)Cc1ccc(C(C)C(=O)O)cc1` (stereo not drawn) [Ibuprofen, reference compound], for which the half-maximal inhibitory concentration (IC50) in series [1] (24 h), in series [1] (48 h), in series [2] (24 h) and in series [2] (48 h) was above 0.2 mM each time.

In the case of `COc1ccc2cc([C@H](C)C(=O)O)ccc2c1` [Naproxen, reference compound], the half-maximal inhibitory concentration (IC50) in series [2] (24 h) and in series [2] (48 h) was above 0.2 mM throughout.

On to `COc1ccc(/C=C/C(=O)c2ccc(Cl)cc2)c(OC(=O)c2ccccc2OC(C)=O)c1` [compound 4], for which the “fold less inhibitory activity against non-cancer CCD841 cells” value in the series on non-cancer CCD841 cells was 8 fold.
